# Test results published in patent publication US10463710B2, “Short synthetic peptide for the treatment and/or prophylaxis of autoimmune and inflammatory disorders” (MacKay Memorial Hospital, priority 2015, dated 2019).
# Legend:
# [1] = test system: OVA-induced allergic asthma; assay: Mouse model of OVA-induced allergic asthma; format: in vivo, BALB/c mice; details: 7-mer 100 μM intranasal twice a day, vs OVA challenged mice, FIG. 6B
# Protocol: BALB/c mice (4- to 5-weeks old females) were sensitized intraperitoneally with 1 μg of ovalbumin (OVA) and 200 μl of 1.5% aluminum hydroxide on days 0 and 7, respectively; and then challenged three times by intranasal injection with 250 μg of OVA on days 21, 22 and 23. Control mice were given OVA with ALUM in sensitization stages, and PBS in place of OVA in challenge stages. For treatment, 7-mer analogue was mixed with 1% CMC eye drop to a concentration 100 μM. On day 20 and after the OVA challenge (day 21), the mice were randomly assigned to two experimental groups (n=6 per group) is and the nasal was injected with 20 μl of 7-mer or vehicle drop twice a day for 4 days (to day 23). Twenty-four hrs after the final challenge with OVA (day 24), mice were euthanized and their eyes were harvested, fixed overnight in 4% paraformaldehyde and embedded in paraffin.
# In this example, we investigate the efficacy of the present synthetic peptide on allergic asthma by use of the well-characterized murine model of allergic airway disease, employing ovalbumin as the antigen. The experimental murine asthma model was established in accordance with the procedures described in the section of “Materials and Methods,” and as depicted in panel A of FIG. 6.
# [2] = test system: OVA-induced allergic conjunctivitis; assay: Mouse model of OVA-induced allergic conjunctivitis; format: in vivo, BALB/c mice; details: 7-mer 100 μM eye drop twice a day for 4 days, FIG. 5C
# Protocol: BALB/c mice (4- to 5-weeks old females) were sensitized intraperitoneally with 1 μg of ovalbumin (OVA) and 200 μl of 1.5% aluminum hydroxide (ALUM) on days 0 and 7, respectively; and then challenged two times topically in the conjunctival sac with 250 μg of OVA respectively on days 15 and 18. Control mice were given OVA with ALUM in sensitization stages, and PBS in place of OVA in challenge stages. For treatment, 7-mer was mixed with 1% CMC eye drop to a concentration 100 μM. After the OVA challenge (day 15), the mice were randomly assigned to two experimental groups (n=6 per group) and the eye was treated with 20 μl of 7-mer or vehicle eye drop twice a day for 4 days (to day 18). Twenty-four hrs after the final challenge with OVA (day 19), mice were euthanized and their eyes were harvested, fixed overnight in 4% paraformaldehyde and embedded in paraffin. To evaluate the eosinophilic infiltration, sections (5 μm) including eyelids were de-paraffinized and stained with acid-giemsa for detection of eosinophils.
# Allergic conjunctivitis (AC) is characterized by conjunctival eosinophilic infiltration. […]
smiles,measurement,setting,value
"CC(=O)N[C@@H](CC(=O)O)C(=O)N[C@@H](CC(C)C)C(=O)N[C@@H](Cc1ccc(O)cc1)C(=O)N[C@@H](CCCNC(=N)N)C(=O)N[C@H](C(=O)N[C@@H](CCCNC(=N)N)C(=O)N[C@@H](CO)C(N)=O)C(C)C [7-mer, NH2-Asp-Leu-Tyr-Arg-Val-Arg-Ser-COOH]","inflammatory cell infiltration (peribronchial, perivascular; H&E)",[1],significantly reduced
same,mucus secretion (PAS staining),[1],markedly reduced
same,infiltration of eosinophils in the conjunctiva,[2],decreased significantly
